Earlier results in patent US20060287318A1, “Method for treating glaucoma III B” (priority 2000, published 2006).

How the values were obtained:
[1] = test system: Aged Rhesus monkeys; conditions: drug treated vs. control eye; baseline and pilocarpine-stimulated conditions; reported in the concurrently filed application "Methods for Treating Glaucoma I"
[2] = test system: Rhesus monkeys; conditions: accommodative responses to i.m. pilocarpine; reported in the concurrently filed application "Methods for Treating Glaucoma I"
[3] = literature description of a compound series

| SMILES | improvement in ophthalmologic function (fluid outflow facility) [1] | improvement in accommodation [2] | glucose lowering effect [3] |
| --- | --- | --- | --- |
| Cc1sc[n+](CC(=O)c2ccccc2)c1C.[Cl-] [4,5-dimethyl-3-(2-oxoethyl-phenethyl)thiazolium chloride] | improvement has been illustrated | Improvement in accommodation has been illustrated | – |
| Cc1ccc(C(=O)C[n+]2ccccc2)cc1.[Cl-] [1-[2-(4-methylphenyl)-2-oxoethyl]-pyridinium chloride] | – | – | inactive |
